Test results as given in ChEMBL document CHEMBL1133333, “Structural comparison between type I and type II antagonists: possible implications in the drug design of AT1 antagonists” (Bioorg Med Chem Lett, 2000).

molecular target: T1, Angiotensin II receptor (AT-1) type-1 (Rattus norvegicus, UniProt P29089+P25095); assay: Antagonistic activity against Angiotensin II receptor type 1 in rat uterus; format: functional, tissue-based
T1 sequence (P29089 whole entry): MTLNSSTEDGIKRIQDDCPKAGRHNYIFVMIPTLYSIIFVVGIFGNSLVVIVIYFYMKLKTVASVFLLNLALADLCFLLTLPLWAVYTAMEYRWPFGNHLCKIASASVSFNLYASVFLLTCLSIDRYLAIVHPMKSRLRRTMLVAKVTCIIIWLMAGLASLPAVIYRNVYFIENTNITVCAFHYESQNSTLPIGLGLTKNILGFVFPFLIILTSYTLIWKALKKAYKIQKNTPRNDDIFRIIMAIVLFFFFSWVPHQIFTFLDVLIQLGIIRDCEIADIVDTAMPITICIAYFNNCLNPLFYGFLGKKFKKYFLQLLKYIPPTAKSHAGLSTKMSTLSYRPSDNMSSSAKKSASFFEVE
T1 sequence (P25095 whole entry): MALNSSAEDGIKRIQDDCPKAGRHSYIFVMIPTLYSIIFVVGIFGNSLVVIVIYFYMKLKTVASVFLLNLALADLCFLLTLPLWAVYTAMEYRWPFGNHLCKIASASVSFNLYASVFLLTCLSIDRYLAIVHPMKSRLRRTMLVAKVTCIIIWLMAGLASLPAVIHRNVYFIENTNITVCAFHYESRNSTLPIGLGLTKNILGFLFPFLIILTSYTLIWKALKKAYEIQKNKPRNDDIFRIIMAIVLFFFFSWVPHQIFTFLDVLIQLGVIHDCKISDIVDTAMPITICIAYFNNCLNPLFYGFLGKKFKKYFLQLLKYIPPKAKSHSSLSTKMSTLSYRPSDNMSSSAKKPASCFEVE

Q: With `CC[C@H](C)[C@H](NC(=O)[C@H](Cc1ccc(O)cc1)NC(=O)[C@@H](NC(=O)[C@H](CCCN=C(N)N)NC(=O)CNC)C(C)C)C(=O)N[C@@H](Cc1c[nH]cn1)C(=O)N1CCC[C@H]1C(=O)N[C@@H](CCO)C(=O)O` as the compound, how does the pA2 read?
A: 7.8

Q: How did the pA2 turn out when `CC[C@H](C)[C@H](NC(=O)[C@H](Cc1ccc(OC)cc1)NC(=O)[C@@H](NC(=O)[C@H](CCCN=C(N)N)NC(=O)[C@@H](N)CC(=O)O)C(C)C)C(=O)N[C@@H](Cc1c[nH]cn1)C(=O)N1CCC[C@H]1C(=O)N[C@@H](CCO)C(=O)O` was run?
A: 5.4

Q: For `CC[C@H](C)[C@H](NC(=O)[C@H](Cc1ccc(OC)cc1)NC(=O)[C@@H](NC(=O)[C@H](CCCN=C(N)N)NC(=O)CNC)C(C)C)C(=O)N[C@@H](Cc1c[nH]cn1)C(=O)N1CCC[C@H]1C(=O)N[C@@H](CCO)C(=O)O`, which pA2 is on record?
A: 5.7

Q: `CC[C@H](C)[C@H](NC(=O)[C@H](Cc1ccc(O)cc1)NC(=O)[C@@H](NC(=O)[C@@H](N)CCCN=C(N)N)C(C)C)C(=O)N[C@@H](Cc1c[nH]cn1)C(=O)N1CCC[C@H]1C(=O)N[C@@H](CCO)C(=O)O` was tested. Which pA2 did it give?
A: < 4.8

Q: `CC[C@H](C)[C@H](NC(=O)[C@@H]1CCCN1C(=O)[C@H](Cc1c[nH]cn1)NC(=O)[C@@H](NC(=O)[C@H](Cc1ccc(OC)cc1)NC(=O)[C@@H](NC(=O)[C@H](CCCN=C(N)N)NC(=O)CNC)C(C)C)[C@@H](C)CC)C(=O)O` was tested. Which pA2 did it give?
A: 6.6

Q: Which pA2 does the source give for `CC[C@H](C)[C@H](NC(=O)[C@H](Cc1ccc(OC)cc1)NC(=O)[C@@H](NC(=O)[C@H](CCCN=C(N)N)NC(=O)CNC)C(C)C)C(=O)N[C@@H](Cc1c[nH]cn1)C(=O)N1CCC[C@H]1C(=O)N[C@@H](Cc1ccccc1)C(=O)O` here?
A: 7.5

Q: With `CC[C@H](C)[C@H](NC(=O)[C@H](Cc1ccc(O)cc1)NC(=O)[C@@H](NC(=O)[C@H](CCCN=C(N)N)NC(=O)[C@@H](N)CC(=O)O)C(C)C)C(=O)N[C@@H](Cc1c[nH]cn1)C(=O)N1CCC[C@H]1C(=O)N[C@@H](CCO)C(=O)O` as the compound, how does the pA2 read?
A: 6.7

Q: With `CC[C@H](C)[C@H](NC(=O)[C@H](Cc1ccc(OC)cc1)NC(=O)[C@@H](NC(=O)[C@@H](N)CCCN=C(N)N)C(C)C)C(=O)N[C@@H](Cc1c[nH]cn1)C(=O)N1CCC[C@H]1C(=O)N[C@@H](CCO)C(=O)O` as the compound, how does the pA2 read?
A: < 4.8
